Our source for the IC50 values is patent US20240207263A1, “SELECTIVE MODULATORS OF ATAXIA TELA[…] (ATM) KINASE AND USES THEREOF” (priority 2021, published 2024).

Where two headings read alike, the source gives them in different places.

One test has as its target ATM (Homo sapiens (Human), UniProt Q13315). The test is described as follows: biochemical. In kind it is biochemical. Conditions: read-out: ATM IC50. From the text: Assay a): ATM Biochemical Potency
Data was collected by Caliper.

Test [1] relates to phosp-KAP1 in MCF-7 cells. The test is described as follows: phosp-KAP1 MCF-7 cellular potency assay (Assay f). In kind it is cell-based. The note with it: Homo sapiens. Here is the method:
Assay f): phosp-KAP1 MCF-7 Cellular Potency
MCF-7 cells were seeded to a 384-well cell-culture plate, 25 μl/well which were incubated at 37° C. and 5% CO2 for 24 hr. Test compounds were added to the 384-well plates. Etoposide at final concentration of 100 μM was then added to each well except Vehicle control wells, which were incubated at 37° C. and 5% CO2 for 1 hour. After medium removal, cells were fixed by the addition of 25 μl/well of 8% paraformaldehyde in PBSA and incubated for 20 minutes at room temperature. After the plates were rinsed 3 times with PBSA, 50 ul permeabilization buffer (0.1% Triton X-100 in PBS) was added and the plates were incubated for 20 minutes at room temperature. After the plates were rinsed with PBSA, block the cells by adding 50 μl of Odyssey Blocking Buffer in 384-well plate and then incubate for 1.5 hours at room temperature. Remove blocking buffer by Plate washer (BioTek ELx405 select CW). […] The plates were rinsed 5 times with PBST (0.1% Tween-20 in PBS).
• 1) Fluorescence intensity (FI) was detected for each well. • 2) % inhibition is calculated as follow:
[formula] • FIpositive: The average FI for the positive controls across the plate. • FIvehicle: The average FI for negative controls across the plate. • 3) Calculate IC50 and Plot effect-dose curve of compounds: • Calculate IC50 by fitting % inhibition values and log of compound concentrations to nonlinear regression (dose response−variable slope) with Graphpad prism 6.0.
Y=Bottom+(Top−Bottom)/(1+10^((Log IC50−X)*HillSlope)) • X: log of compounds concentration; Y: % inhibition

For test [2], the target named is ATM (phospho-ATM Ser1981) in SN38 treated HT-29 cells (Homo sapiens (Human), UniProt Q13315). The test is described as follows: cell-based. Conditions: HT-29 cells, SN-38; read-out: SN-38 HT-29 cellular IC50. As to the method: Assay g): ATM SN-38 HT-29 Cellular Potency
SN38 causes single strand DNA breaks (SSBs) which are converted to double strand breaks (DSBs) during replication. ATM plays role of repairing DSBs. Inhibition of ATM was evaluated in SN38 treated HT-29 cells (ATCC, Cat #HTB-38) by high-Content Imaging System
The graphical views were then generated using Prism 7.0 (Graphpad).

[3] abbreviates: MCF7, MCF-7 cells, etoposide, read-out: Etoposide MCF-7 cellular IC50.

ATM (phospho-ATM Ser1981) in SN38 treated HT-29 cells, sequence (Q13315 whole entry, looked up): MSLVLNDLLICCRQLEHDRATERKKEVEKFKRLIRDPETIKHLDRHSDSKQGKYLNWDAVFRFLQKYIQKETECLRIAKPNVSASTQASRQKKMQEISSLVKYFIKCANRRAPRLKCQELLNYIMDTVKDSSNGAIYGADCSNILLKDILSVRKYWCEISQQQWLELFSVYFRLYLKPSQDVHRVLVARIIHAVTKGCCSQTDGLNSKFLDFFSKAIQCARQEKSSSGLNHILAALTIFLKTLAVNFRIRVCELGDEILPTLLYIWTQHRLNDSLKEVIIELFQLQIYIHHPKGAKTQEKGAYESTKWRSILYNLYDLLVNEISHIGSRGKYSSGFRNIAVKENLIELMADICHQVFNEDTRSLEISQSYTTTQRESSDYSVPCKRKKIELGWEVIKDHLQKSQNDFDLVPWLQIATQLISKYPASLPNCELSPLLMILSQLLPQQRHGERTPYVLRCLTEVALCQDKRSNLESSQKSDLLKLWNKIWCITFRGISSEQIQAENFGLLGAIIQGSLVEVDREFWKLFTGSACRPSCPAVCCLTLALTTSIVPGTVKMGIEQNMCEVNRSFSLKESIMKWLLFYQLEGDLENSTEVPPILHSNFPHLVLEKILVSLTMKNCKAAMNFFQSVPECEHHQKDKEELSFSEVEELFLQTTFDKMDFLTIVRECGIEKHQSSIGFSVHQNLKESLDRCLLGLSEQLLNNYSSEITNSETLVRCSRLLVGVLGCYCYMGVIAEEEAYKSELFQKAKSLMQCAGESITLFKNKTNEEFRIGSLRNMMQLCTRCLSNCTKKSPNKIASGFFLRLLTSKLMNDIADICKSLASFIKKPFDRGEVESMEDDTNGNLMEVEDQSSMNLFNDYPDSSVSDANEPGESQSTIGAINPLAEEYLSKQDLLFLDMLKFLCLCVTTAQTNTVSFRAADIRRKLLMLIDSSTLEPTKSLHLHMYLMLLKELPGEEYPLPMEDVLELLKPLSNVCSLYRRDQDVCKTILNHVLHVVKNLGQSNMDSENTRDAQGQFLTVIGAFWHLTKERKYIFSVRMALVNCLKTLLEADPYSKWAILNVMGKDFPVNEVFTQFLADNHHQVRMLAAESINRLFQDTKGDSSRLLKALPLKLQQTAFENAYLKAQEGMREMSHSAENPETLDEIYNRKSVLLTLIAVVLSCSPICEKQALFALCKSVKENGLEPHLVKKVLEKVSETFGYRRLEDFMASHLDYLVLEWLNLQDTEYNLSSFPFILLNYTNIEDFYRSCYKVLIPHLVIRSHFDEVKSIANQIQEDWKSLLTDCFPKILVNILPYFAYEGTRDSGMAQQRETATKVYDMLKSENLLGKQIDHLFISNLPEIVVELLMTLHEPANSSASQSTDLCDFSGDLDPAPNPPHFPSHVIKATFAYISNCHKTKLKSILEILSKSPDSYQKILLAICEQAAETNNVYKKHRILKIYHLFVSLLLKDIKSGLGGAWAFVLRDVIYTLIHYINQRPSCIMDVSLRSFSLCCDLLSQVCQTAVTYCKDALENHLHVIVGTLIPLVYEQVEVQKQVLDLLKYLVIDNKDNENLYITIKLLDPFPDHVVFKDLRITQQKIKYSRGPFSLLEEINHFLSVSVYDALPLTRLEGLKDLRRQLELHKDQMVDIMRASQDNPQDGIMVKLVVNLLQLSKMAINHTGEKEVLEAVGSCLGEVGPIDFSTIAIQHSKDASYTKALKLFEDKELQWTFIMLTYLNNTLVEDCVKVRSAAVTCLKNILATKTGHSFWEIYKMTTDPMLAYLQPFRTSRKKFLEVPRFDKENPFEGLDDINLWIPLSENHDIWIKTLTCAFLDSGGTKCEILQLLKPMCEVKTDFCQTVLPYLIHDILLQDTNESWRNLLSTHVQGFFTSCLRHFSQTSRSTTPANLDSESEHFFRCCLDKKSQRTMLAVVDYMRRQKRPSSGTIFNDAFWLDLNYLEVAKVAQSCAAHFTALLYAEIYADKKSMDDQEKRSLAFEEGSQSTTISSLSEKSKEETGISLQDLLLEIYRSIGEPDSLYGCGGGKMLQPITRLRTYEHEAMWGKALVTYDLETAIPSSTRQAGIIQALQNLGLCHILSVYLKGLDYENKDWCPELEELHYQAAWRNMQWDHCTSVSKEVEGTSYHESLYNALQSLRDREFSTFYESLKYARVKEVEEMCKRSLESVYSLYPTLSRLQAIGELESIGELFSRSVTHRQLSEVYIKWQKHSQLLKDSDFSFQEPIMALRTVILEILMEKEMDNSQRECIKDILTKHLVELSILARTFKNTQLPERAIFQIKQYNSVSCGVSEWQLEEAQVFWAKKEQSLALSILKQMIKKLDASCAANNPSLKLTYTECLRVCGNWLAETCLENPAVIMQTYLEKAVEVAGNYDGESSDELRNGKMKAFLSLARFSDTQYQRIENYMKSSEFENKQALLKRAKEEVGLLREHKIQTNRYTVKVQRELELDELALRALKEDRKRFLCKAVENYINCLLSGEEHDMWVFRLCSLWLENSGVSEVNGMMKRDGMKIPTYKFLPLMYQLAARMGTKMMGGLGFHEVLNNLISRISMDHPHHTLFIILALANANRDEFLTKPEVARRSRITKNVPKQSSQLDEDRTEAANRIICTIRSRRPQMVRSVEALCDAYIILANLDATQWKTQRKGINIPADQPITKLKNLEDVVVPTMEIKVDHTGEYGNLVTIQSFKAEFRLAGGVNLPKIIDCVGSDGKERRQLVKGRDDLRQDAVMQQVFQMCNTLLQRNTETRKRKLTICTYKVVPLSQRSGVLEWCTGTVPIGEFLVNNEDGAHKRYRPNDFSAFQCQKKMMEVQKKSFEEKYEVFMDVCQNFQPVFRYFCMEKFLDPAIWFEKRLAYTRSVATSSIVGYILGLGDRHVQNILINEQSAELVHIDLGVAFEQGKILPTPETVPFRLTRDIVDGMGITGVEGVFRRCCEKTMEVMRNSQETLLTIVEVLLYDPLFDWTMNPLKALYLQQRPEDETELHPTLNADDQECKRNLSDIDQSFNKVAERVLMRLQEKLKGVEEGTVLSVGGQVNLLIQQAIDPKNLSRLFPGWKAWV
ATM, sequence (Q13315 whole entry, looked up): as above

As for `CC(C)n1c(=O)n(C)c2nnc3ccc(-c4ccc(COCCN5CCC(C)(C)C5)nc4)cc3c21` [Example 36, 8-(6-((2-(3,3-dimethylpyrrolidin-1-yl)ethoxy)methyl)pyridin-3-yl)-1-isopropyl-3-methyl-1H-imidazo[4,5-c]cinnolin-2(3H)-one], the IC50 – broadly, the midpoint of a concentration-inhibition curve – on ATM worked out at 4.7 nM; in test [1] (MCF7, read-out: Etoposide MCF-7 cellular IC50), 20 nM; in test [2] it was 20 nM.
For the molecule `CO[C@H]1CCN(CCOCc2ccc(-c3ccc4nnc5c(c4c3)n(C(C)C)c(=O)n5C)cn2)C1` [Example 43, (S)-1-isopropyl-8-(6-((2-(3-methoxypyrrolidin-1-yl)ethoxy)methyl)pyridin-3-yl)-3-methyl-1H-imidazo[4,5-c]cinnolin-2(3H)-one], the IC50 on ATM was 12 nM; in test [2], 92 nM.
For the molecule `CC(C)n1c(=O)n(C)c2nnc3ccc(-c4ccc([C@@H](C)OCCN5CCC(OC(F)F)C5)nc4)cc3c21` (stereo partly drawn) [Example 54, 8-(6-((1R)-1-(2-(3-(difluoromethoxy)pyrrolidin-1-yl)ethoxy)ethyl)pyridin-3-yl)-1-isopropyl-3-methyl-1H-imidazo[4,5-c]cinnolin-2(3H)-one], in test [1] (setting [3]), the IC50 amounted to 17 nM.
As for `CC(C)n1c(=O)n(C)c2nnc3ccc(-c4ccc([C@@H](C)OCCN5CCC6(CC5)CC6)nc4)cc3c21` [Example 55, (R)-8-(6-(1-(2-(6-azaspiro[2.5]octan-6-yl)ethoxy)ethyl)pyridin-3-yl)-1-isopropyl-3-methyl-1H-imidazo[4,5-c]cinnolin-2(3H)-one], the IC50 amounted to 3.2 nM at ATM and 11 nM in test [1] (setting [3]).
As for `CO[C@H]1CCN(CCO[C@H](C)c2ccc(-c3ccc4nnc5c(c4c3)n(C(C)C)c(=O)n5C)cn2)C1` [Example 59, 1-isopropyl-8-(6-((R)-1-(2-((S)-3-methoxypyrrolidin-1-yl)ethoxy)ethyl)pyridin-3-yl)-3-methyl-1H-imidazo[4,5-c]cinnolin-2(3H)-one], the results for the IC50 (at ATM; in test [1] (setting [3])) were 8.3 nM and 65 nM, respectively.
For the molecule `CC(C)n1c(=O)n(C)c2nnc3ccc(-c4ccc([C@@H](C)OCCN5CCC6(COC6)C5)nc4)cc3c21` [Example 86, (R)-8-(6-(1-(2-(2-oxa-6-azaspiro[3.4]octan-6-yl)ethoxy)ethyl)pyridin-3-yl)-1-isopropyl-3-methyl-1H-imidazo[4,5-c]cinnolin-2(3H)-one], the figures for the IC50 (on ATM; in test [1] (setting [3])) were 3.6 nM and 12 nM, respectively.
With `Cn1c(=O)n(C2CCOCC2)c2c3cc(-c4ccc(COCCN5CCC(C)(C)C5)nc4)ccc3nnc21` [Example 97, 8-(6-((2-(3,3-dimethylpyrrolidin-1-yl)ethoxy)methyl)pyridin-3-yl)-3-methyl-1-(tetrahydro-2H-pyran-4-yl)-1H-imidazo[4,5-c]cinnolin-2(3H)-one], the IC50 came out at 14 nM at ATM and 43 nM in test [1] (setting [3]).
Turning to `C[C@@H](OCCN1CCC(C)(C)CC1)c1ccc(-c2ccc3nnc4c(c3c2)n(C2CCOCC2)c(=O)n4C)cn1` [Example 103, (R)-8-(6-(1-(2-(4,4-dimethylpiperidin-1-yl)ethoxy)ethyl)pyridin-3-yl)-3-methyl-1-(tetrahydro-2H-pyran-4-yl)-1H-imidazo[4,5-c]cinnolin-2(3H)-one], the values for the IC50 (on ATM; in test [1] (setting [3])) were 3.9 nM and 20 nM, respectively.
Regarding `CO[C@H]1CCN(CCO[C@H](C)c2ccc(-c3ccc4nnc5c(c4c3)n(C3CCOCC3)c(=O)n5C)cn2)C1` [Example 105, 8-(6-((R)-1-(2-((S)-3-methoxypyrrolidin-1-yl)ethoxy)ethyl)pyridin-3-yl)-3-methyl-1-(tetrahydro-2H-pyran-4-yl)-1H-imidazo[4,5-c]cinnolin-2(3H)-one], in test [1] (setting [3]), the IC50 was 36 nM.
Turning to `COC1CCN(CCO[C@H](C)c2ccc(-c3ccc4nnc5c(c4c3)n(C3CCOCC3)c(=O)n5C)cn2)CC1` [Example 110, (R)-8-(6-(1-(2-(4-methoxypiperidin-1-yL)ethoxy)ethyl)pyridin-3-yl)-3-methyl-1-(tetrahydro-2H-pyran-4-yl)-1H-imidazo[4,5-c]cinnolin-2(3H)-one], the IC50 at ATM amounted to 6.9 nM; in test [1] (setting [3]) it was 13 nM.
On to `C[C@@H](OCCN1CCC(C(F)(F)F)CC1)c1ccc(-c2ccc3nnc4c(c3c2)n(C2CCOCC2)c(=O)n4C)cn1` [Example 117, (R)-3-methyl-1-(tetrahydro-2H-pyran-4-yl)-8-(6-(1-(2-(4-(trifluoromethyl)piperidin-1-yl)ethoxy)ethyl)pyridin-3-yl)-1H-imidazo[4,5-c]cinnolin-2(3H)-one], for which the IC50 on ATM was determined as 3.7 nM; in test [1] (setting [3]) it was 65 nM.
As for `C[C@@H](OCCN1CCC2(CCC2)C1)c1ccc(-c2ccc3nnc4c(c3c2)n(C2CCOCC2)c(=O)n4C)cn1` [Example 118, (R)-8-(6-(1-(2-(6-azaspiro[3.4]octan-6-yl)ethoxy)ethyl)pyridin-3-yl)-3-methyl-1-(tetrahydro-2H-pyran-4-yl)-1H-imidazo[4,5-c]cinnolin-2(3H)-one], the figures for the IC50 (on ATM; in test [1] (setting [3])) were 4.1 nM and 71 nM, respectively.
Consider `CC(C)n1c(=O)n(C)c2nnc3cc(F)c(-c4ccc(COCCN5CCC(C)(C)CC5)nc4)cc3c21` [Example 133, 8-(6-((2-(4,4-dimethylpiperidin-1-yl)ethoxy)methyl)pyridin-3-yl)-7-fluoro-1-isopropyl-3-methyl-1H-imidazo[4,5-c]cinnolin-2(3H)-one], for which the IC50 worked out at 13 nM on ATM and 44 nM in test [1] (setting [3]).
As to `CC(C)n1c(=O)n(C)c2nnc3cc(F)c(-c4ccc([C@@H](C)OCCN5CCC(C)(C)C5)nc4)cc3c21` [Example 137, (R)-8-(6-(1-(2-(3,3-dimethylpyrrolidin-1-yl)ethoxy)ethyl)pyridin-3-yl)-7-fluoro-1-isopropyl-3-methyl-1H-imidazo[4,5-c]cinnolin-2(3H)-one], the half-maximal inhibitory concentration (IC50) at ATM was determined as 6.3 nM; in test [1] (setting [3]), 22 nM.
On to `CC(C)n1c(=O)n(C)c2nnc3cc(F)c(-c4ccc([C@@H](C)OCCN5CCC6(CC5)CC6)nc4)cc3c21` [Example 140, (R)-8-(6-(1-(2-(6-azaspiro[2.5]octan-6-yl)ethoxy)ethyl)pyridin-3-yl)-7-fluoro-1-isopropyl-3-methyl-1H-imidazo[4,5-c]cinnolin-2(3H)-one], for which the values for the IC50 (on ATM; in test [1] (setting [3])) were 2.8 nM and 14 nM, respectively.
In the case of `COC1CCN(CCO[C@H](C)c2ccc(-c3cc4c(cc3F)nnc3c4n(C(C)C)c(=O)n3C)cn2)CC1` [Example 142, (R)-7-fluoro-1-isopropyl-8-(6-(1-(2-(4-methoxypiperidin-1-yl)ethoxy)ethyl)pyridin-3-yl)-3-methyl-1H-imidazo[4,5-c]cinnolin-2(3H)-one], the results for the IC50 (on ATM; in test [1] (setting [3])) were 4.7 nM and 24 nM, respectively.
The matching figures for `CC(C)n1c(=O)n(C)c2nnc3cc(F)c(-c4ccc([C@@H](C)OCCN5CCC(OC(F)(F)F)CC5)nc4)cc3c21` [Example 144, (R)-7-fluoro-1-isopropyl-3-methyl-8-(6-(1-(2-(4-(trifluoromethoxy)piperidin-1-yl)ethoxy)ethyl)pyridin-3-yl)-1H-imidazo[4,5-c]cinnolin-2(3H)-one]: 2.9 nM and 47 nM.
Consider `C[C@@H](OCCN1CCC(C)(C)C1)c1ccc(-c2cc3c(cc2F)nnc2c3n(C3CCOCC3)c(=O)n2C)cn1` [Example 153, (R)-8-(6-(1-(2-(3,3-dimethylpyrrolidin-1-yl)ethoxy)ethyl)pyridin-3-yl)-7-fluoro-3-methyl-1-(tetrahydro-2H-pyran-4-yl)-1H-imidazo[4,5-c]cinnolin-2(3H)-one], for which the IC50 stood at 8.5 nM at ATM and 43 nM in test [1] (setting [3]).
In the same order, the values of `CO[C@H]1C[C@@H](n2c(=O)n(C)c3nnc4ccc(-c5ccc(COCCN6CCC(F)CC6)nc5)cc4c32)C1` [Example 174, 8-(6-((2-(4-fluoropiperidin-1-yl)ethoxy)methyl)pyridin-3-yl)-1-(cis-3-methoxycyclobutyl)-3-methyl-1H-imidazo[4,5-c]cinnolin-2(3H)-one] are 28 nM and 26 nM.
In the case of `CC(C)n1c(=O)n(C)c2nnc3cc(F)c(-c4ccc(COCCN5CCC(F)CC5)nc4)cc3c21` [Ref compd 1, 7-fluoro-8-(6-((2-(4-fluoropiperidin-1-yl)ethoxy)methyl)pyridin-3-yl)-1-isopropyl-3-methyl-1H-imidazo[4,5-c]cinnolin-2(3H)-one, reference compound], the values for the IC50 (on ATM; in test [2]) were 25 nM and 273 nM, respectively.
